Data: US12540129B2, “KIF18A inhibitors” (AMGEN INC., priority 2019, dated 2026)

Molecular target: T1, Recombinant human KIF18A (1-467 His-tagged) protein (Homo sapiens, UniProt Q8NI77)
T1 construct: Recombinant human KIF18A (1-467 His-tagged) protein; His; made in house
Assay: KIF18A Enzyme Assay: microtubule-stimulated ATPase activity (ADP-Glo)
Format: biochemical
Settings: 30 nM KIF18A, 75 μM ATP
In short: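 ADP-Glo luminescence reports ADP produced by His-tagged human KIF18A motor domain (1-467, insect-cell expressed) with microtubules and ATP.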

T1 sequence (Q8NI77 1-467): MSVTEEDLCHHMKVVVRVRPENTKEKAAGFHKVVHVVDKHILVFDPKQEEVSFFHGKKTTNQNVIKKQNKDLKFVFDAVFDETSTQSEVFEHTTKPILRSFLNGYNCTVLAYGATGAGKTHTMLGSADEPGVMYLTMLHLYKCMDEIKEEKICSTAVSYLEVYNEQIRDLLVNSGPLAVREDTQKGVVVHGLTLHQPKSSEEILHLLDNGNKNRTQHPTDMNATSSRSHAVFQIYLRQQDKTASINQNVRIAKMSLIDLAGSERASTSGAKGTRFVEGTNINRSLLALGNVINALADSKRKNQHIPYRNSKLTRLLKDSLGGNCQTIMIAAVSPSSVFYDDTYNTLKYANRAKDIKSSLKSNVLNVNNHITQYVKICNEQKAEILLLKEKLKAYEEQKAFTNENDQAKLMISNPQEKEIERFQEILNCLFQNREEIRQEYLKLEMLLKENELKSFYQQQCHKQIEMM
T1 sequence (P02550 whole entry partner): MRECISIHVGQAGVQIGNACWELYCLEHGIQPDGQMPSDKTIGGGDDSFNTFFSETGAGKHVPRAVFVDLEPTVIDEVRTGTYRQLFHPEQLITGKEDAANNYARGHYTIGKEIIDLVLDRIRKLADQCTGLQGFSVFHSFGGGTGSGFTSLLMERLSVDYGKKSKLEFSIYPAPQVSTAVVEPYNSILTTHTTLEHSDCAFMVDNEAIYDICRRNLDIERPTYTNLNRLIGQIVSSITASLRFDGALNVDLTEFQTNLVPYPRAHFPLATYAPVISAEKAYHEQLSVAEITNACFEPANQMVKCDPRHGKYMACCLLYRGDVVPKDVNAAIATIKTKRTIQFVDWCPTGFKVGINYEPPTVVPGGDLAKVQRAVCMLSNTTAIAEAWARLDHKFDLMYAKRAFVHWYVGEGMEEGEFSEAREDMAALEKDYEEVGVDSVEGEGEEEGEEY
T1 sequence (P02554 whole entry partner): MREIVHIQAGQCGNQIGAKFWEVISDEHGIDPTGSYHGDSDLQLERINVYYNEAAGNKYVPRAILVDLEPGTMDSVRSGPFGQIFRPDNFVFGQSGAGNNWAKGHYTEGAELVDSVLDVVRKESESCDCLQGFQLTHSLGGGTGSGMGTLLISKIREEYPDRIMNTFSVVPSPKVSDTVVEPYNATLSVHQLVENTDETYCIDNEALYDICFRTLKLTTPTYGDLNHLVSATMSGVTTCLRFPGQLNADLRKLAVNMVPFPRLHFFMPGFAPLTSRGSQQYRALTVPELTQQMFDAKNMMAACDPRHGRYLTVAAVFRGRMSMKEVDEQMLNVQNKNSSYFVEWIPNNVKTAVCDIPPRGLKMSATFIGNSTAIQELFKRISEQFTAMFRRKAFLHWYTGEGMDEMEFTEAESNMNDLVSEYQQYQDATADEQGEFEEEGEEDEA

SMILES	IC50
CC(C)(CO)Nc1ccc(C(=O)Nc2cccc(S(=O)(=O)NC3CC3)c2)c(N2CCC3(CC2)CC3)n1 [Example 105-14, N-(3-(N-cyclopropylsulfamoyl)phenyl)-6-((1-hydroxy-2-methylpropan-2-yl)amino)-2-(6-azaspiro[2.5]octan-6-yl)nicotinamide]	33 nM
Cc1ccc(NC(=O)c2ccc(NC(C)(C)CO)nc2N2CCC3(CC2)CC3)cc1S(=O)(=O)NC(C)(C)C [Example 105-16, N-(3-(N-(tert-butyl)sulfamoyl)-4-methylphenyl)-6-((1-hydroxy-2-methylpropan-2-yl)amino)-2-(6-azaspiro[2.5]octan-6-yl)nicotinamide]	121 nM
CC(C)(C)NS(=O)(=O)c1cc(NC(=O)c2ccc(NC(C)(C)CO)nc2N2CCC3(CC2)CC3)ccc1F [Example 105-17, N-(3-(N-(tert-butyl)sulfamoyl)-4-fluorophenyl)-6-((1-hydroxy-2-methylpropan-2-yl)amino)-2-(6-azaspiro[2.5]octan-6-yl)nicotinamide]	116 nM
COc1ccc(NC(=O)c2ccc(NC(C)(C)CO)nc2N2CCC3(CC2)CC3)cc1S(=O)(=O)NC(C)(C)C [Example 105-20, N-(3-(N-(tert-butyl)sulfamoyl)-4-methoxyphenyl)-6-((1-hydroxy-2-methylpropan-2-yl)amino)-2-(6-azaspiro[2.5]octan-6-yl)nicotinamide]	162 nM
CC(C)(C)NS(=O)(=O)c1cc(F)cc(NC(=O)c2ccc(NC(C)(C)CO)nc2N2CCC3(CC2)CC3)c1 [Example 105-21, N-(3-(N-(tert-butyl)sulfamoyl)-5-fluorophenyl)-6-((1-hydroxy-2-methylpropan-2-yl)amino)-2-(6-azaspiro[2.5]octan-6-yl)nicotinamide]	108 nM
CC(C)(C)NS(=O)(=O)c1cccc(NC(=O)c2ccc(NC(C)(C)CO)nc2N2CCC3(CC2)CC3)c1F [Example 105-23, N-(3-(N-(tert-butyl)sulfamoyl)-2-fluorophenyl)-6-((1-hydroxy-2-methylpropan-2-yl)amino)-2-(6-azaspiro[2.5]octan-6-yl)nicotinamide]	177 nM
CC(C)(C)NS(=O)(=O)c1cc(Br)cc(NC(=O)c2ccc(NC(C)(C)CO)nc2N2CCC3(CC2)CC3)c1 [Example 105-24, N-(3-bromo-5-(N-(tert-butyl)sulfamoyl)phenyl)-6-((1-hydroxy-2-methylpropan-2-yl)amino)-2-(6-azaspiro[2.5]octan-6-yl)nicotinamide]	143 nM
CC(C)(C)NC(=O)c1cccc(NC(=O)c2ccc(NC(C)(C)CO)nc2N2CCC3(CC2)CC3)c1 [Example 105-25, N-(3-(tert-butylcarbamoyl)phenyl)-6-((1-hydroxy-2-methylpropan-2-yl)amino)-2-(6-azaspiro[2.5]octan-6-yl)nicotinamide]	314 nM
CC(C)(CO)Nc1ccc(C(=O)Nc2cccc(N3CCCC3)c2)c(N2CCC3(CC2)CC3)n1 [Example 105-26, 6-((1-hydroxy-2-methylpropan-2-yl)amino)-N-(3-(pyrrolidin-1-yl)phenyl)-2-(6-azaspiro[2.5]octan-6-yl)nicotinamide]	234 nM
Cc1ccc(NC(=O)c2ccc(NC(C)(C)CO)nc2N2CCC3(CC2)CC3)cc1N1CCOCC1 [Example 105-30, 6-((1-hydroxy-2-methylpropan-2-yl)amino)-N-(4-methyl-3-morpholinophenyl)-2-(6-azaspiro[2.5]octan-6-yl)nicotinamide]	261 nM
O=C(Nc1cccc(S(=O)(=O)C2CCCC2)c1)c1ccc(NC(CO)CO)nc1N1CCC2(CC1)CC2 [Example 106, N-(3-(Cyclopentylsulfonyl)phenyl)-6-((1,3-dihydroxypropan-2-yl)amino)-2-(6-azaspiro[2.5]octan-6-yl)nicotinamide]	54 nM
CC1(NS(=O)(=O)c2cccc(NC(=O)c3ccc(NC(CO)CO)nc3N3CCC4(CC3)CC4)c2)CCC1 [Example 106-1, 6-((1,3-dihydroxypropan-2-yl)amino)-N-(3-(N-(1-methylcyclobutyl)sulfamoyl)phenyl)-2-(6-azaspiro[2.5]octan-6-yl)nicotinamide]	78 nM
CC(C)(C)NS(=O)(=O)c1cccc(NC(=O)c2ccc(NC(C)(CO)CO)nc2N2CCC3(CC2)CC3)c1 [Example 106-5, N-(3-(N-(tert-butyl)sulfamoyl)phenyl)-6-((1,3-dihydroxy-2-methylpropan-2-yl)amino)-2-(6-azaspiro[2.5]octan-6-yl)nicotinamide]	53 nM
CC(O)(c1ccc(C(=O)Nc2cccc(S(=O)(=O)NC3CC3)c2)c(N2CCC3(CC2)CC3)n1)C(F)(F)F (centres unmarked) [Example 108-1, N-(3-(N-cyclopropylsulfamoyl)phenyl)-2-(6-azaspiro[2.5]octan-6-yl)-6-(1,1,1-trifluoro-2-hydroxypropan-2-yl)nicotinamide]	52 nM

The next lines start with the values.

IC50	SMILES
56 nM	CC(C)(CO)Nc1ccc(C(=O)Nc2cccc(S(=O)(=O)NC3(C)CCC3)c2)c(N2CCC3(CC2)CC3)n1 [Example 105-13, 6-((1-hydroxy-2-methylpropan-2-yl)amino)-N-(3-(N-(1-methylcyclobutyl)sulfamoyl)phenyl)-2-(6-azaspiro[2.5]octan-6-yl)nicotinamide]
800 nM	O=C(Nc1cccc(S(=O)(=O)NC2CC2)c1)c1ccc(NC2(CO)CC2)nc1N1CCC2(CC1)CC2 [Example 105-15, N-(3-(N-cyclopropylsulfamoyl)phenyl)-6-((1-(hydroxymethyl)cyclopropyl)amino)-2-(6-azaspiro[2.5]octan-6-yl)nicotinamide]
122 nM	Cc1cc(NC(=O)c2ccc(NC(C)(C)CO)nc2N2CCC3(CC2)CC3)cc(S(=O)(=O)NC(C)(C)C)c1 [Example 105-18, N-(3-(N-(tert-butyl)sulfamoyl)-5-methylphenyl)-6-((1-hydroxy-2-methylpropan-2-yl)amino)-2-(6-azaspiro[2.5]octan-6-yl)nicotinamide]
70 nM	CC(C)(C)NS(=O)(=O)c1cc(NC(=O)c2ccc(NC(C)(C)CO)nc2N2CCC3(CC2)CC3)ccc1Cl [Example 105-19, N-(3-(N-(tert-butyl)sulfamoyl)-4-chlorophenyl)-6-((1-hydroxy-2-methylpropan-2-yl)amino)-2-(6-azaspiro[2.5]octan-6-yl)nicotinamide]
134 nM	COc1cc(NC(=O)c2ccc(NC(C)(C)CO)nc2N2CCC3(CC2)CC3)cc(S(=O)(=O)NC(C)(C)C)c1 [Example 105-22, N-(3-(N-(tert-butyl)sulfamoyl)-5-methoxyphenyl)-6-((1-hydroxy-2-methylpropan-2-yl)amino)-2-(6-azaspiro[2.5]octan-6-yl)nicotinamide]
262 nM	CC(C)(CO)Nc1ccc(C(=O)Nc2cccc(N3CCOCC3)c2)c(N2CCC3(CC2)CC3)n1 [Example 105-27, 6-((1-hydroxy-2-methylpropan-2-yl)amino)-N-(3-morpholinophenyl)-2-(6-azaspiro[2.5]octan-6-yl)nicotinamide]
162 nM	CC(C)(CO)Nc1ccc(C(=O)Nc2cccc(N3CCS(=O)(=O)CC3)c2)c(N2CCC3(CC2)CC3)n1 [Example 105-28, N-(3-(1,1-dioxidothiomorpholino)phenyl)-6-((1-hydroxy-2-methylpropan-2-yl)amino)-2-(6-azaspiro[2.5]octan-6-yl)nicotinamide]
279 nM	Cc1ccc(NC(=O)c2ccc(NC(C)(C)CO)nc2N2CCC3(CC2)CC3)cc1N1CCCC1=O [Example 105-29, 6-((1-hydroxy-2-methylpropan-2-yl)amino)-N-(4-methyl-3-(2-oxopyrrolidin-1-yl)phenyl)-2-(6-azaspiro[2.5]octan-6-yl)nicotinamide]
199 nM	C[C@@H]1CN(c2cc(NC(=O)c3ccc(NC(C)(C)CO)nc3N3CCC4(CC3)CC4)ccc2F)CCO1 [Example 105-31, (R)-N-(4-fluoro-3-(2-methylmorpholino)phenyl)-6-((1-hydroxy-2-methylpropan-2-yl)amino)-2-(6-azaspiro[2.5]octan-6-yl)nicotinamide]
208 nM	C[C@@H]1CN(c2cc(F)cc(NC(=O)c3ccc(NC(C)(C)CO)nc3N3CCC4(CC3)CC4)c2)CCO1 [Example 105-32, (R)-N-(3-fluoro-5-(2-methylmorpholino)phenyl)-6-((1-hydroxy-2-methylpropan-2-yl)amino)-2-(6-azaspiro[2.5]octan-6-yl)nicotinamide]
109 nM	CC(C)(C)NS(=O)(=O)c1cccc(NC(=O)c2ccc(NC(CO)CO)nc2N2CCC3(CC2)CC3)c1 [Example 106-2, N-(3-(N-(tert-butyl)sulfamoyl)phenyl)-6-((1,3-dihydroxypropan-2-yl)amino)-2-(6-azaspiro[2.5]octan-6-yl)nicotinamide]
39 nM	CC(CO)(CO)Nc1ccc(C(=O)Nc2cccc(S(=O)(=O)C3CCCC3)c2)c(N2CCC3(CC2)CC3)n1 [Example 106-3, N-(3-(cyclopentylsulfonyl)phenyl)-6-((1,3-dihydroxy-2-methylpropan-2-yl)amino)-2-(6-azaspiro[2.5]octan-6-yl)nicotinamide]
40 nM	Cc1ccc(NC(=O)c2ccc(NC(C)(CO)CO)nc2N2CCC3(CC2)CC3)cc1S(=O)(=O)C1CCCC1 [Example 106-4, N-(3-(cyclopentylsulfonyl)-4-methylphenyl)-6-((1,3-dihydroxy-2-methylpropan-2-yl)amino)-2-(6-azaspiro[2.5]octan-6-yl)nicotinamide]
48 nM	CC(CO)(CO)Nc1ccc(C(=O)Nc2cccc(S(=O)(=O)NC3CC3)c2)c(N2CCC3(CC2)CC3)n1 [Example 106-6, N-(3-(N-cyclopropylsulfamoyl)phenyl)-6-((1,3-dihydroxy-2-methylpropan-2-yl)amino)-2-(6-azaspiro[2.5]octan-6-yl)nicotinamide]
65 nM	CC(O)(c1ccc(C(=O)Nc2cccc(S(=O)(=O)C3CCCC3)c2)c(N2CCC3(CC2)CC3)n1)C(F)(F)F (centres unmarked) [Example 108-2, N-(3-(cyclopentylsulfonyl)phenyl)-2-(6-azaspiro[2.5]octan-6-yl)-6-(1,1,1-trifluoro-2-hydroxypropan-2-yl)nicotinamide]
